Source: ChEMBL document CHEMBL1142867, “Antiviral activity of triazine analogues of 1-(S)-[3-hydroxy-2-(phosphonomethoxy)propyl]cytosine (cidofovir) and related compounds” (J Med Chem, 2007)
In brackets after ≈: the same amount, converted by molar mass.

Key:
[1] = system: Human alphaherpesvirus 3; test: Antiviral activity against VZV OKA in HEL cells assessed as inhibition of plaque formation; assay type: functional, organism-based; conditions: Human alphaherpesvirus 3, OKA
[2] = system: Human betaherpesvirus 5; assay type: functional, organism-based; conditions: Human betaherpesvirus 5, AD169, HEL
[3] = system: Respiratory syncytial virus; assay type: functional, organism-based; conditions: human respiratory syncytial virus, Long, HeLa
[4] = system: Human alphaherpesvirus 1; assay type: functional, organism-based; conditions: Human alphaherpesvirus 1, KOS, HEL
[5] = system: Human immunodeficiency virus 1; assay type: functional, organism-based; conditions: Human immunodeficiency virus 1, 3B, CCRF-CEM
[6] = system: Vesicular stomatitis virus; test: microbe, parasite or virus in culture; conditions: HeLa
[7] = Cytotoxicity against HeLa cells assessed as alteration in cell morphology; assay type: cell-based; conditions: human
[8] = system: Mammalian orthoreovirus 1; assay type: functional, organism-based; conditions: Mammalian orthoreovirus 1, Vero
[9] = system: Human betaherpesvirus 5; assay type: functional, organism-based; conditions: Human betaherpesvirus 5, Davis, HEL
[10] = Cytotoxicity against C3H cells assessed as alteration in cell morphology; assay type: cell-based; conditions: mouse
[11] = system: Moloney murine sarcoma virus; test: Antiviral activity against MSV in mouse C3H cells assessed as inhibition of virus-induced transformation after 6 days; assay type: functional, organism-based; conditions: 144 h
[12] = system: Sindbis virus; assay type: functional, organism-based; conditions: Vero
[13] = system: Human alphaherpesvirus 2; assay type: functional, organism-based; conditions: Human alphaherpesvirus 2, G, HEL
[14] = system: Vesicular stomatitis virus; test: microbe, parasite or virus in culture; conditions: E6SM
[15] = system: Human alphaherpesvirus 1; assay type: functional, organism-based; conditions: Human alphaherpesvirus 1, KOS, HEL; remark: listed apart in the source
[16] = system: Vaccinia virus; assay type: functional, organism-based; conditions: Orthopoxvirus vaccinia, Lederle, HEL
[17] = system: Coxsackievirus B4; assay type: functional, organism-based; conditions: Enterovirus B, Vero
[18] = system: Human respirovirus 3; assay type: functional, organism-based; conditions: Human respirovirus 3, Vero
[19] = system: Coxsackievirus B4; assay type: functional, organism-based; conditions: Enterovirus B, HeLa
[20] = system: Human immunodeficiency virus 2; assay type: functional, organism-based; conditions: Human immunodeficiency virus 2, ROD, CCRF-CEM
[21] = system: Human alphaherpesvirus 3; test: Antiviral activity against TK- VZV 07-1 in HEL cells assessed as inhibition of plaque formation; assay type: functional, organism-based; conditions: Human alphaherpesvirus 3, 07-1, HEL
[22] = Cytotoxicity against HEL cells assessed as alteration in cell morphology after 3 days; assay type: cell-based; conditions: human, read-out: Activity
[23] = Cytotoxicity against CEM cells assessed as reduction of cell growth; assay type: cell-based; conditions: human, CEM (CCRF-CEM) cells
[24] = system: HEL; test: Cytotoxicity against HEL cells assessed as inhibition of cell growth after 3 days; assay type: cell-based; conditions: human, 72 h
[25] = Cytotoxicity against E6SM cells assessed as alteration in cell morphology; assay type: cell-based; conditions: human
[26] = system: Human alphaherpesvirus 2; assay type: functional, organism-based; conditions: Human alphaherpesvirus 2, Lyons, HEL
[27] = Cytotoxicity against Vero cells assessed as alteration in cell morphology; assay type: cell-based; conditions: chlorocebus sabaeus
[28] = system: Punta Toro virus; assay type: functional, organism-based; conditions: Vero
[29] = Cytotoxicity against HSB2 cells assessed as alteration in cell morphology; assay type: cell-based, CCRF-HSB-2; conditions: human, read-out: Activity
[30] = system: Human adenovirus 2; assay type: functional, organism-based; conditions: Human mastadenovirus C, HEL
[31] = system: Yellow fever virus; assay type: functional, organism-based; conditions: Vero
[32] = Cytotoxicity against Huh5-2 cells assessed as reduction of cell growth; assay type: cell-based, Huh-5-2; conditions: human
[33] = system: Hepatitis C virus; test: Antiviral activity against HCV in Huh5-2 cells assessed as inhibition of HCV subgenomic replicon replication; assay type: functional, organism-based, Hepacivirus hominis; conditions: Huh-5-2

SMILES	EC50 [1] [µg/mL]	EC50 [3] [µg/mL]	EC50 [5] [µg/mL]	EC50 [6] [µg/mL]	MCC [7] [µg/mL]	EC50 [8] [µg/mL]	EC50 [9] [µg/mL]	MCC [10] [µg/mL]	EC50 [11] [µg/mL]	EC50 [12] [µg/mL]	EC50 [13] [µg/mL]	EC50 [17] [µg/mL]	EC50 [18] [µg/mL]	EC50 [19] [µg/mL]	EC50 [20] [µg/mL]	MCC at 72 h [22] [µg/mL]	Activity [24]	MCC [25] [µg/mL]	MCC [27] [µg/mL]	EC50 [28] [µg/mL]	also measured
Nc1ncn(C[C@H](O)CO)c(=O)n1	> 100	> 100	> 100	> 100	> 100	> 100	> 100	> 100	> 100	> 100	> 100	> 100	> 100	> 100	> 100	> 100	> 100 µg/mL	> 100	> 100	> 100	EC50 [2]: > 100 µg/mL; EC50 [4]: > 100 µg/mL; EC50 [14]: > 100 µg/mL; EC50 [15]: > 100 µg/mL; EC50 [16]: > 100 µg/mL; EC50 [21]: > 100 µg/mL; CC50 [23]: > 100 µg/mL; EC50 [26]: > 100 µg/mL
NC(=NC(=O)NC[C@@H](CO)OCP(=O)(O)O)NC=O	0.042 (≈ 0.141 µM)	> 100	> 100	> 100	> 100	> 100	0.12 (≈ 0.402 µM)	> 100	130 (≈ 436 µM)	> 100	6.58 (≈ 22.1 µM)	> 100	> 100	> 100	> 100	> 50	> 50 µg/mL	> 100	> 100	> 100	EC50 [2]: 0.1 µg/mL (≈ 0.335 µM); EC50 [4]: 2.85 µg/mL (≈ 9.56 µM); EC50 [14]: > 100 µg/mL; EC50 [15]: 1.35 µg/mL (≈ 4.53 µM); EC50 [16]: 8.35 µg/mL (≈ 28 µM); MCC [29]: ≥ 200 µg/mL; EC50 [21]: 0.046 µg/mL (≈ 0.154 µM); CC50 [23]: ≥ 100 µg/mL; EC50 [26]: 3.16 µg/mL (≈ 10.6 µM); EC50 [30]: 17.8 µg/mL (≈ 59.7 µM)
Nc1ncnc2c1ncn2C[C@H](O)CO [(S)-DHPA]	–	> 400	> 100	400 (≈ 1910 µM)	> 400	48 (≈ 229 µM)	–	> 100	> 100	240 (≈ 1150 µM)	–	240 (≈ 1150 µM)	48 (≈ 229 µM)	> 400	> 100	–	–	> 400	> 400	48 (≈ 229 µM)	–
C[C@H](Cn1cnc(N)nc1=O)OCP(=O)(O)O	> 100	> 100	> 100	> 100	> 100	> 100	> 100	> 100	> 100	> 100	> 100	> 100	> 100	> 100	> 100	> 50	> 50 µg/mL	> 100	> 100	> 100	EC50 [2]: > 100 µg/mL; EC50 [14]: > 100 µg/mL; EC50 [15]: > 100 µg/mL; EC50 [16]: > 100 µg/mL; EC50 [21]: > 100 µg/mL; CC50 [23]: > 100 µg/mL
Nc1ncn(CCOCP(=O)(O)O)c(=O)n1	25 (≈ 99.9 µM)	> 80	> 100	> 80	400	> 80	37 (≈ 148 µM)	200	7.5 (≈ 30 µM)	> 80	25.8 (≈ 103 µM)	> 80	> 80	> 80	> 100	> 100	> 50 µg/mL	400	400	> 80	EC50 [2]: 49 µg/mL (≈ 196 µM); EC50 [4]: 17 µg/mL (≈ 68 µM); EC50 [14]: > 80 µg/mL; EC50 [15]: 9.9 µg/mL (≈ 39.6 µM); EC50 [16]: > 100 µg/mL; EC50 [31]: > 100 µg/mL; CC50 [32]: > 50 µg/mL; EC50 [21]: 10 µg/mL (≈ 40 µM); CC50 [23]: 96 µg/mL (≈ 384 µM); EC50 [33]: > 50 µg/mL; EC50 [26]: 39.3 µg/mL (≈ 157 µM)
Nc1ncn(C[C@@H](CO)OCP(=O)(O)O)c(=O)n1	0.027 (≈ 0.0964 µM)	> 400	> 100	> 400	> 400	> 80	0.054 (≈ 0.193 µM)	20	22 (≈ 78.5 µM)	> 80	0.35 (≈ 1.25 µM)	> 80	> 80	> 400	> 100	> 50	>= 140 ug ml-1	> 400	400	> 80	EC50 [2]: 0.078 µg/mL (≈ 0.278 µM); EC50 [4]: 0.24 µg/mL (≈ 0.857 µM); EC50 [14]: > 400 µg/mL; EC50 [15]: 0.077 µg/mL (≈ 0.275 µM); EC50 [16]: 2.56 µg/mL (≈ 9.14 µM); EC50 [31]: > 100 µg/mL; CC50 [32]: > 50 µg/mL; MCC [29]: 16 µg/mL; EC50 [21]: 0.019 µg/mL (≈ 0.0678 µM); CC50 [23]: 28 µg/mL (≈ 99.9 µM); EC50 [33]: > 50 µg/mL; EC50 [26]: 0.25 µg/mL (≈ 0.892 µM)
Nc1nc(O)c2ncn(COC(CO)CO)c2n1 [GANCICLOVIR]	–	–	–	–	–	–	1.5 (≈ 5.88 µM)	–	–	–	0.0096 (≈ 0.0376 µM)	–	–	–	–	> 100	83.6 µg/mL	–	–	–	EC50 [4]: 0.91 µg/mL (≈ 3.57 µM)
